# Source: US20250084092A1, “ANNULATED PYRIDAZINE COMPOUND” (Nico Therapeutics, Inc., priority 2021, published 2025)
# What was measured:
# [1] = biological target: T1, NLRP3 inflammasome (Homo sapiens, UniProt Q96P20); test: THP-1 IL-1β production inhibition test; type: cell-based; details: PMA-treated THP-1 cells, LPS 50 ng/mL + ATP 5 mM, 2 hours, IL-1β in supernatant by ELISA
# T1 construct: endogenous in cells; host or cells: THP-1 cells (PMA-differentiated, stimulated with LPS and ATP)
# Experimental: PMA (phorbol myristate acetate, SIGMA, P1585) was added to THP-1 cells in an amount of 50 ng/mL to culture the cells for 2 days at 37° C. […] LPS (Lipopolysaccharide, SIMGA, L2880) and ATP (Adenosine triphosphate, SIGMA, A2383) were added so that final concentrations become 50 ng/mL and 5 mM, respectively, followed by culturing at 37° C. for 2 hours. The supernatants were collected to measure the concentrations of IL-1β by ELISA (DuoSet ELISA human IL-1β, R&D Systems, DY201). The IL-1β concentrations were plotted against log concentrations of test compounds, and an IC50 value was calculated by sigmoid Emax model nonlinear regression analysis.
# [2] = system: TNF-α production in THP-1 cells; test: TNF-α production inhibition test; type: cell-based; details: Homo sapiens; PMA-treated THP-1 cells, LPS 50 ng/mL, 2 hours, TNF-α in supernatant by ELISA
# Experimental: PMA (phorbol myristate acetate, SIGMA, P1585) was added to THP-1 cells in an amount of 50 ng/mL to culture the cells for 2 days at 37° C. The culture medium was replaced with a serum-free RPMI-1640 medium, and a compound with a known concentration was added thereto to culture the cells at 37° C. for 15 minutes. LPS (Lipopolysaccharide SIMGA, L2880) was added so that each final concentration becomes 50 ng/mL, followed by culturing at 37° C. for 2 hours. The supernatants were collected to measure the concentration of TNF-α by ELISA (DuoSet ELISA human TNF-α, R&D Systems, DY210). The TNF-α concentrations were plotted against log concentrations of test compounds, and an IC50 value was calculated by sigmoid Emax model nonlinear regression analysis.
# T1 sequence (Q96P20 whole entry): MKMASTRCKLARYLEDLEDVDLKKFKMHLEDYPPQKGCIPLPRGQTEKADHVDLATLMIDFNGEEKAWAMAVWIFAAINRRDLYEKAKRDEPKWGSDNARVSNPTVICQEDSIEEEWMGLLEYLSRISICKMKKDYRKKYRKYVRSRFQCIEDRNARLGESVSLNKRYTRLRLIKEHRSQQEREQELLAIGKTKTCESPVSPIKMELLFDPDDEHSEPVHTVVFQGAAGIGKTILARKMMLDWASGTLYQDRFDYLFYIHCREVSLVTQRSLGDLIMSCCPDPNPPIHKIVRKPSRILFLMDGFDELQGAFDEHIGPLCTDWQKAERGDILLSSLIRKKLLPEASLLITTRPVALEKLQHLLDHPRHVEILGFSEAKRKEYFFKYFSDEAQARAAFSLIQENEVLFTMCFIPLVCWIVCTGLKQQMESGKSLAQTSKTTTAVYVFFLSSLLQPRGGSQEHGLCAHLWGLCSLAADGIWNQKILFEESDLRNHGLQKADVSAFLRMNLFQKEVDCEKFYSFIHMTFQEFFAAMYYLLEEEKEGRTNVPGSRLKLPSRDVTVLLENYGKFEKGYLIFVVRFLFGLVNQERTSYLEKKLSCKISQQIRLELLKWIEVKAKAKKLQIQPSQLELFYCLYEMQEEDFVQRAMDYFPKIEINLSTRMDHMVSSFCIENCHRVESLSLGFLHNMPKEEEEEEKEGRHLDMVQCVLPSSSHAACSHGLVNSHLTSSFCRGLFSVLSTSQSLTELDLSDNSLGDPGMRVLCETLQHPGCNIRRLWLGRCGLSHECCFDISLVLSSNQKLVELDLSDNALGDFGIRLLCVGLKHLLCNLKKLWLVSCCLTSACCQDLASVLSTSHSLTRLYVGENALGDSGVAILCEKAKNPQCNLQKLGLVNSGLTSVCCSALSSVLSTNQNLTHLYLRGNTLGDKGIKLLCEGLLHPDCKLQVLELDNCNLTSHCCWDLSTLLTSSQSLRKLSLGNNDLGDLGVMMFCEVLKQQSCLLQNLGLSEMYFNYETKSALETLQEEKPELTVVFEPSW
Structure (SMILES),IC50 [1],IC50 [2]
"CN1CCc2c(-c3ccc(C(F)(F)F)cc3O)nnc(N[C@@H]3CCCC[C@H]3O)c2C1 [Example 73, 2-(4-{[(1R,2R)-2-hydroxycyclohexyl]amino}-6-methyl-5,6,7,8-tetrahydropyrido[3,4-d]pyridazin-1-yl)-5-(trifluoromethyl)phenol]",7.6 nM,≥ 10000 nM
"CN1Cc2c(N[C@@H]3CCCC[C@H]3O)nnc(-c3ccc(C(F)(F)F)cc3O)c2C1 [Example 99, 2-(4-{[(1R,2R)-2-hydroxycyclohexyl]amino}-6-methyl-6,7-dihydro-5H-pyrrolo[3,4-d]pyridazin-1-yl)-5-(trifluoromethyl)phenol]",16 nM,≥ 10000 nM
"Oc1cc(C(F)(F)F)ccc1-c1nnc(N[C@@H]2CCCC[C@H]2O)c2c1CCOCC2 [Example 5, 2-(4-{[(1R,2R)-2-hydroxycyclohexyl]amino}-5,6,8,9-tetrahydrooxepino[4,5-d]pyridazin-1-yl)-5-(trifluoromethyl)phenol]",4.7 nM,≥ 10000 nM
CN1CCC[C@@H](Nc2nnc(-c3ccc(C(F)(F)F)cc3O)c3c2COCC3)C1 [Example 125],1.5 nM,≥ 10000 nM
"Oc1cc(Cl)ccc1-c1nnc(N[C@@H]2CCCC[C@H]2O)c2c1CCOC2 [Example 70, 5-chloro-2-(4-{[(1R,2R)-2-hydroxycyclohexyl]amino}-7,8-dihydro-5H-pyrano[3,4-d]pyridazin-1-yl)phenol]",2.1 nM,≥ 10000 nM
"Oc1cc(C(F)(F)F)ccc1-c1nnc(N[C@@H]2CCCC[C@@H]2O)c2c1CCOC2 [4(1), 2-(4-{[(1R,2S)-2-hydroxycyclohexyl]amino}-7,8-dihydro-5H-pyrano[3,4-d]pyridazin-1-yl)-5-(trifluoromethyl)phenol]",2.5 nM,≥ 10000 nM
CN1CCC[C@@H](Nc2nnc(-c3ccc(C(F)(F)F)cc3O)c3c2CSC3)C1 [Example 121],8.5 nM,
Oc1cc(C(F)(F)F)ccc1-c1nnc(N[C@@H]2CCCC[C@H]2O)c2c1CCC1(COC1)C2 [Example 107],3.6 nM,
"Oc1cc(C(F)(F)F)ccc1-c1nnc(N[C@@H]2CCCNC2)c2c1CCCC2 [Example 96, 2-(4-{[(3R)-piperidin-3-yl]amino}-5,6,7,8-tetrahydrophthalazin-1-yl)-5-(trifluoromethyl)phenol]",45 nM,
O=S1(=O)Cc2c(N[C@@H]3CCCC[C@H]3O)nnc(-c3ccc(C(F)(F)F)cc3O)c2C1 [131(1)],3 nM,
C[C@]1(O)C[C@@H](Nc2nnc(-c3ccc(OC(F)(F)F)cc3O)c3c2CCCC3)C1 [Example 32],76 nM,
COc1ccc(-c2nnc(N[C@@H]3CCCC[C@H]3O)c3c2CCOC3)c(O)c1 [Example 69],6.6 nM,
Oc1cc(C(F)(F)F)ccc1-c1nnc(N[C@@H]2CCCC[C@H]2O)c2c1CSCC2 [Example 102],5.1 nM,
CN1CCc2c(-c3ccc(OC(F)(F)F)cc3O)nnc(N[C@@H]3CCCC[C@H]3O)c2C1 [Example 76],23 nM,
Cc1ccc(-c2nnc(N[C@@H]3CCCC[C@@]3(C)O)c3c2CCCC3)c(O)c1 [Example 55],36 nM,
Oc1cc(OC(F)(F)F)ccc1-c1nnc(N[C@@H]2CCCC[C@H]2O)c2c1CCCC2 [Example 27],4.1 nM,
"Oc1cc(OC(F)(F)F)ccc1-c1nnc(N[C@@H]2CCCC[C@@H]2O)c2c1CCOC2 [Example 127, 2-(4-{[(1R,2S)-2-hydroxycyclohexyl]amino}-7,8-dihydro-5H-pyrano[3,4-d]pyridazin-1-yl)-5-(trifluoromethoxy)phenol]",5.6 nM,
"Oc1cc(C(F)(F)F)ccc1-c1nnc(N[C@@H]2CCCN(C3COC3)C2)c2c1CCCC2 [Example 97, 2-(4-{[(3R)-1-(oxetan-3-yl)piperidin-3-yl]amino}-5,6,7,8-tetrahydrophthalazin-1-yl)-5-(trifluoromethyl)phenol]",3.4 nM,
COc1ccc(-c2nnc(N[C@@H]3CCCC[C@H]3O)c3c2CCCCC3)c(O)c1 [Example 47],16 nM,
Cc1ccc(-c2nnc(N[C@@H]3CCCC[C@H]3O)c3c2CCN(C)C3)c(O)c1 [Example 77],33 nM,
